Measurements from publication PMC9600589, “The Heptaprenyl Diphosphate Synthase (Coq1) Is the Target of a Lipophilic Bisphosphonate That Protects Mice against Toxoplasma gondii Infection” (mBio, 2022).
Where two headings read alike, the source gives them in different places.

Columns and labels:
[1] = system: T. gondii parental strain (TatiΔku80); test: Growth inhibition of the parental strain; assay type: cell-based; conditions: Toxoplasma gondii, read-out: EC50 (TatiΔku80)
Protocol: (§1) Previous work has shown that bisphosphonates can target several enzymes of the isoprenoid biosynthesis pathway, including the farnesyl diphosphate synthase (FPPS), which synthesizes FPP, the preferred substrate of TgCoq1 ([14]). […] We further determined specificity against TgCoq1, by comparing the growth inhibition of the compound against a parental strain (TatiΔku80) versus a cell line overexpressing TgCoq1 (TgCoq1-OE).
(§2) Experiments on T. gondii tachyzoites were carried out using parasites expressing red fluorescent protein (RFP) ([66]) with the modification described by Recher et al. ([67]). Tachyzoites were maintained in human fibroblasts (hTERT cells). For drug testing and growth assays, parasites were purified by passing them through a 25-gauge needle, followed by filtration through a 3-μm filter. Human fibroblasts were cultured in 96-well black-sided plates for 24 h before the addition of 4,000 fluorescent tachyzoites/well. […] The EC50s were calculated using Prism software. The UQ6 experiments were performed using the same protocol as described above. The parasites were supplemented with 10 μM UQ6.

[2] = system: T. gondii RH; test: In vitro growth inhibition of RFP-expressing tachyzoites in hTERT fibroblasts; assay type: cell-based, Toxoplasma gondii; conditions: for rescue of growth inhibition by UQ6: 10 μM UQ6 added to the culture; for IC50 / EC50: Toxoplasma gondii, Fibroblast; for IC50: T. gondii growth in vitro; for EC50: T. gondii RH
Protocol: as §2

[3] = system: T. gondii TgCoq1-OE strain; test: Growth inhibition of the TgCoq1 overexpressing strain; assay type: cell-based; conditions: Toxoplasma gondii, read-out: EC50 TgCoq1-OE strain
Protocol: as §1, §2

[4] = biological target: recombinant TgFPPS (Toxoplasma gondii, UniProt Q197X6); test: biochemical
[5] = biological target: T1, recombinant TgCoq1 (Toxoplasma gondii, UniProt S8EY63); test: biochemical
T1 sequence (S8EY63 152-676): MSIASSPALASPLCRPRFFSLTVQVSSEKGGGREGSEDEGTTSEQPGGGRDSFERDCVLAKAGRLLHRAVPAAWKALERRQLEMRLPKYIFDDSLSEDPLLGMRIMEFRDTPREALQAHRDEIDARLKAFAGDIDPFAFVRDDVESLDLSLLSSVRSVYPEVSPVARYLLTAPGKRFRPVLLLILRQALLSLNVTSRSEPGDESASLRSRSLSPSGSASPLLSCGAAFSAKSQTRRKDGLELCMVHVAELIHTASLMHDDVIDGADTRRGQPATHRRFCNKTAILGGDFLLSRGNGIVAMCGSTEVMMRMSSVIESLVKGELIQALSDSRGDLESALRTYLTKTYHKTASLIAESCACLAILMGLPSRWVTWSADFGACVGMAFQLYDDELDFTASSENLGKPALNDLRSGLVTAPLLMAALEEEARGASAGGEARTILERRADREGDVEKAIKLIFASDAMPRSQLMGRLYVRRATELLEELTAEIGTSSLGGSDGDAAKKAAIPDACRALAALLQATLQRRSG

[6] = system: hTERT cells; test: Cytotoxicity to hTERT cells (alamarBlue); conditions: hTERT cells
Protocol: The cytotoxicity was tested using an alamarBlue assay as described by Recher et al. ([67]).

[7] = biological target: T1, recombinant TgCoq1; test: Kinetic parameters of recombinant TgCoq1 with allylic substrates ([4-14C]IPP incorporation); assay type: biochemical; conditions: allylic substrate varied, counter substrate IPP (100 μM)
Protocol: (§3) To investigate the biochemical function of TgCoq1, we cloned the TGGT1_269430 gene in an E. coli expression plasmid, which also includes a C-terminal polyhistidine tag to facilitate the purification of the recombinant protein by affinity chromatography. The activity of the purified protein was determined using allylic substrates and cosubstrates, by measuring the amount of [4-^14C]IPP incorporated into butanol-extractable polyprenyl diphosphates (FPP and GGPP) (Fig. 2A). […] A parallel experiment with the already characterized recombinant Trypanosoma cruzi solanesyl diphosphate synthase ([26]), TcSPPS, known to synthesize a 45-carbon product, is shown in the same TLC (Fig. 2B). With the use of a standard enzymatic method ([26]), the kinetic parameters of the reaction were obtained using various concentrations of the allylic substrates (GPP, FPP, GGPP, and IPP) and keeping the concentration of counter substrates at a saturating level (Table 1). Under these experimental conditions, the enzyme was more efficient with FPP than with GGPP (Fig. 2C) or GPP as the substrate (Table 1).
(§4) Kinetic parameters for the recombinant TgCoq1 were calculated from the activity obtained by varying the concentration of the allylic substrates (GPP, FPP, GGPP, and IPP) and keeping the concentration of counter substrates at a saturating level. The nonlinear regression analysis in Sigma plot 10.0 was used to calculate the Kinetic parameters.
(§5) For the enzymatic activity, a standard protocol for medium/long-chain prenyl diphosphate synthase was followed as described previously ([26]). The enzyme activity was measured by assessing the amount of [4-^14C]IPP incorporated into butanol-extractable polyprenyl diphosphates. The standard assay mixture contained, in a final volume of 100 μl, Tris-HCl (100 mM, pH 7.4), 100 μM of any of the allylic substrates FPP/GGPP/GPP, 1 mM MgCl2, 1 mM DTT, 1% vol/vol Triton X-100, 100 μM [4-^14C]-IPP (1 μCi/μMol), and 500 ng of purified protein. Reaction mixtures were incubated at 37°C for 30 min unless otherwise indicated. The radioactive prenyl products were extracted with 1-butanol and washed with NaCl-saturated water, and activities were calculated from the DPM values.

[8] = system: T. gondii iΔCoq1 (+ATc) mutant; test: Rescue of the growth defect of the iΔCoq1 (+ATc) mutant by ubiquinones; assay type: cell-based, Toxoplasma gondii
Protocol: To further validate the role of TgCoq1 in the synthesis of ubiquinone, we tested if supplementing cultures of the iΔCoq1 (+ATc) mutant with various ubiquinones would rescue the growth defect (Fig. 7). Because UQ7 is not commercially available, we tested UQ6, UQ8, and UQ10 and observed a remarkable rescue of the growth of the iΔCoq1 (+ATc) mutant by UQ6 (Fig. 7A).
Experiments on T. gondii tachyzoites were carried out using parasites expressing red fluorescent protein (RFP) ([66]) with the modification described by Recher et al. ([67]). Tachyzoites were maintained in human fibroblasts (hTERT cells). For drug testing and growth assays, parasites were purified by passing them through a 25-gauge needle, followed by filtration through a 3-μm filter. Human fibroblasts were cultured in 96-well black-sided plates for 24 h before the addition of 4,000 fluorescent tachyzoites/well. Fluorescence values were measured for up to 9 days, and both excitation (544 nm) and emission (590 nm) were read from the bottom of the plates in a Molecular Devices plate reader ([46]). The EC50s were calculated using Prism software. The UQ6 experiments were performed using the same protocol as described above. […]

[9] = substrate: CC(C)=CCC/C(C)=C/CC/C(C)=C/CO[P@@](=O)(O)OP(=O)(O)O; test: Kinetic parameters of recombinant TgCoq1 with allylic substrates ([4-14C]IPP incorporation); assay type: biochemical, Toxoplasma gondii; conditions: other: allylic substrate varied, counter substrate IPP (100 μM); pH 7.4; 37.0 °C
Protocol: as §3, §4, §5

[10] = substrate: C=C(C)CCO[P@@](=O)(O)OP(=O)(O)O; test: as above; assay type: biochemical, Toxoplasma gondii; conditions: pH 7.4, 37.0 °C
Protocol: as §3, §4, §5

[11] = at 4X EC50 (concentration in μM in brackets)
[12] = at 10X EC50 (concentration in μM in brackets)
[13] = other: counter substrate FPP (100 μM)
[14] = other: counter substrate GGPP (50 μM)
[15] = other: counter substrate GPP (150 μM)

Sequence of recombinant TgFPPS (Q197X6 entry or part of it): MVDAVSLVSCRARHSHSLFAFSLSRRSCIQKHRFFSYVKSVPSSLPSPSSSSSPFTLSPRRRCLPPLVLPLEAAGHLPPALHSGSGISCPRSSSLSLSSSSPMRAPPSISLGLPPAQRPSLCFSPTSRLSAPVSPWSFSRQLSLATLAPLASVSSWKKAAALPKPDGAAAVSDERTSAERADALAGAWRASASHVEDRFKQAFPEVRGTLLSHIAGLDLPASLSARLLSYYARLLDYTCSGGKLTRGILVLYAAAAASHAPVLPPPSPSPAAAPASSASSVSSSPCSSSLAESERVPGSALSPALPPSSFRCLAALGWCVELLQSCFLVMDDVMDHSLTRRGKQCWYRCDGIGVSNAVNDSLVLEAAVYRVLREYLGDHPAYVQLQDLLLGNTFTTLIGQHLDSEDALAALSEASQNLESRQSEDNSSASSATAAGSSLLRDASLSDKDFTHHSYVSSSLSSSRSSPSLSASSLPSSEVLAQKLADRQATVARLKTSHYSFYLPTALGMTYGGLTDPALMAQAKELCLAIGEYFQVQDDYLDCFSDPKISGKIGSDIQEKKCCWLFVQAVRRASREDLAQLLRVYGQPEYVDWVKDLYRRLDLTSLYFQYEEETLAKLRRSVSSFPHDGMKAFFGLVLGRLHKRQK

Molecule: O=C1C(O)=C([C@H]2CC[C@H](c3ccc(Cl)cc3)CC2)C(=O)c2ccccc21 [Atovaquone]
- EC50 [1]: 30 ± 10 nM
- rescue of growth inhibition by UQ6 [2]: modest rescue
- EC50 [3]: 40 ± 10 nM

Molecule: CCCCCCCCC(O)(P(=O)(O)O)P(=O)(O)O [BPH-252]
- IC50 [2]: 850 ± 140 nM
- IC50 [4]: 130 ± 50 nM
- IC50 [5]: 2130 ± 520 nM

Molecule: CCCCCCCCn1cc[n+](CC(P(=O)([O-])O)P(=O)(O)O)c1 (stereo not drawn) [BPH-1217]
- % Inhibition (cytotoxicity) [6, 11]: 8.01 ± 1.82%
- % Inhibition (cytotoxicity) [6, 12]: 6.19 ± 9.55%

Molecule: CCCCCCCCCCCCCCn1cc[n+](CC(P(=O)([O-])O)P(=O)(O)O)c1 (stereo not drawn) [BPH-1219]
- % Inhibition (cytotoxicity) [6, 11]: 3.20 ± 2.89%
- % Inhibition (cytotoxicity) [6, 12]: 8.01 ± 1.82%

Molecule: CCCCCCCCCCCn1cc[n+](CC(O)(P(=O)([O-])O)P(=O)(O)O)c1 (stereo not drawn) [BPH-1236]
- % Inhibition (cytotoxicity) [6, 11]: 4.13 ± 1.20%
- % Inhibition (cytotoxicity) [6, 12]: 9.10 ± 2.38%

Molecule: CCCCCCCCCn1cc[n+](CC(O)(P(=O)([O-])O)P(=O)(O)O)c1 (stereo not drawn) [BPH-1238]
- % Inhibition (cytotoxicity) [6, 11]: 9.77 ± 1.18%
- % Inhibition (cytotoxicity) [6, 12]: 13.37 ± 6.08%

Molecule: CCCCCCCCCCCCCCCn1cc[n+](CC(O)(P(=O)([O-])O)P(=O)(O)O)c1 (stereo not drawn) [BPH-1325]
- IC50 [2]: 1650 ± 890 nM
- IC50 [4]: 700 ± 60 nM
- IC50 [5]: 1690 ± 460 nM

Molecule: CC(C)=CCC/C(C)=C/CC/C(C)=C/CC/C(C)=C/COP(=O)(O)OP(=O)(O)O [GGPP, geranylgeranyl diphosphate]
- Kcat [7]: 0.00275 ± 8.3e-05 s⁻¹
- Km [7]: 14.1 ± 1.43 µM
- Vmax [7]: 82.98 ± 2.51 nmol/min/mg

Molecule: CC(C)=CCC/C(C)=C/COP(=O)(O)OP(=O)(O)O [GPP, geranyl diphosphate]
- Kcat [7]: 0.0002 ± 1.7e-05 s⁻¹
- Km [7]: 0.88 ± 0.6 µM
- Vmax [7]: 6.16 ± 0.45 nmol/min/mg

Molecule: Cc1[nH]c2c(c(=O)c1-c1ccc(Oc3ccc(OC(F)(F)F)cc3)cc1)CCCC2 [JAG-21]
- rescue of growth inhibition by UQ6 [2]: not rescued
- EC50 ([2]; with ubiquinone Q6 (10 μM) in the culture, read-out: EC50 + UQ6): 70 ± 1 nM
- EC50 ([2]; without UQ6, read-out: EC50): 49 ± 20 nM
- % Inhibition (cytotoxicity) [6, 11]: 6.40 ± 5.50%
- % Inhibition (cytotoxicity) [6, 12]: 5.75 ± 4.98%

Molecule: CC(C)=CCC/C(C)=C/CNCCNC1C2CC3CC(C2)CC1C3 (stereo not drawn) [SQ109]
- EC50 [1]: 1730 ± 380 nM
- EC50 [3]: 1800 ± 470 nM

Molecule: COC1=C(OC)C(=O)C(C/C=C(\C)CC/C=C(\C)CC/C=C(\C)CC/C=C(\C)CC/C=C(\C)CCC=C(C)C)=C(C)C1=O [UQ6, Ubiquinone Q6]
- rescue of growth of the iΔCoq1 mutant with ATc ([8]; 5 μM ubiquinone): rescue
- rescue of growth of the iΔCoq1 mutant with ATc ([8]; 10 μM ubiquinone): rescued

Molecule: COC1=C(OC)C(=O)C(C/C=C(\C)CC/C=C(\C)CC/C=C(\C)CC/C=C(\C)CC/C=C(\C)CC/C=C(\C)CC/C=C(\C)CCC=C(C)C)=C(C)C1=O [UQ8, ubiquinone 8]
- rescue of growth of the iΔCoq1 mutant with ATc ([8]; 5 μM ubiquinone): no rescue

Molecule: COC1=C(OC)C(=O)C(C/C=C(\C)CC/C=C(\C)CC/C=C(\C)CC/C=C(\C)CC/C=C(\C)CC/C=C(\C)CC/C=C(\C)CC/C=C(\C)CC/C=C(\C)CCC=C(C)C)=C(C)C1=O [UQ10, ubiquinone 10]
- rescue of growth of the iΔCoq1 mutant with ATc ([8]; 5 μM ubiquinone): no rescue

B1: recombinant TgCoq1 (Toxoplasma gondii ME49) (protein)
chain: MSIASSPALASPLCRPRFFSLTVQVSSEKGGGREGSEDEGTTSEQPGGGRDSFERDCVLAKAGRLLHRAVPAAWKALERRQLEMRLPKYIFDDSLSEDPLLGMRIMEFRDTPREALQAHRDEIDARLKAFAGDIDPFAFVRDDVESLDLSLLSSVRSVYPEVSPVARYLLTAPGKRFRPVLLLILRQALLSLNVTSRSEPGDESASLRSRSLSPSGSASPLLSCGAAFSAKSQTRRKDGLELCMVHVAELIHTASLMHDDVIDGADTRRGQPATHRRFCNKTAILGGDFLLSRGNGIVAMCGSTEVMMRMSSVIESLVKGELIQALSDSRGDLESALRTYLTKTYHKTASLIAESCACLAILMGLPSRWVTWSADFGACVGMAFQLYDDELDFTASSENLGKPALNDLRSGLVTAPLLMAALEEEARGASAGGEARTILERRADREGDVEKAIKLIFASDAMPRSQLMGRLYVRRATELLEELTAEIGTSSLGGSDGDAAKKAAIPDACRALAALLQATLQRRSG
- Km [9]: 12.37 ± 1.83 µM
- kcat/Km [9]: 609 M⁻¹ s⁻¹
- Km [10, 13]: 139.11 ± 17.68 µM
- kcat/Km [10, 13]: 134 M⁻¹ s⁻¹
- Km [10, 14]: 141.89 ± 35.75 µM
- kcat/Km [10, 14]: 87.5 M⁻¹ s⁻¹
- Km [10, 15]: 145.48 ± 1.18 µM
- kcat/Km [10, 15]: 6.5 M⁻¹ s⁻¹
